These results are taken from US20130345419A1, “AZOLE DERIVATIVE” (TAISHO PHARMACEUTICAL CO., LTD., priority 2011, published 2013).

The assay deals with T1, human recombinant FKBP12 (Homo sapiens, UniProt P62942).
T1 construct: purchased Sigma F-5398
T1 sequence (P62942 whole entry): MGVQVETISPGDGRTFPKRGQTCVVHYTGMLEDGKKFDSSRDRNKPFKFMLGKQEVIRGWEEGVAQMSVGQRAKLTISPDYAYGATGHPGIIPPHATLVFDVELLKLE
Kind of assay: Test 1: immunophilin FKBP12 rotamase (peptidylprolyl isomerase) inhibiting activity. The assay is classed as biochemical. As to conditions: 12 nM human recombinant FKBP12, substrate succinyl-Ala-Phe-Pro-Phe-paranitroanilide 48 μM, 4° C.; read-out: PKBP12 rotamase inhibiting activity IC50. As to the method:
(Test 1) Test for Measuring Immunophilin FKBP12 Rotamase Activity
The rotamase (peptidylprolyl isomerase) inhibiting activity of each test compound was measured by a known method (Harding et al., Nature 341, 758-760, 1989; Holts et al., J. Am. Chem. Soc. 115, 9925-9938, 1993.) To be more specific, a plastic cuvette was charged with 35 mM HEPES (pH 7.8), 12 nM human recombinant FKBP12 (Sigma, F-5398), 0.4 mg/mL α-chymotrypsin, and a test compound dissolved in DMSO at varying concentrations (DMSO's final concentration was 0.1%.) Subsequently, 24 mM of the substrate peptide, succinyl-Ala-Phe-Pro-Phe-paranitroanilide, as dissolved in trifluoroethanol containing 500 mM of LiCl was added to give a final concentration of 48 μM, whereupon reaction started. The reaction was carried out at 4° C. and the change in absorbance at 390 nm accompanying the liberation of the paranitroaniline product was monitored. A calculated initial rate minus the corresponding value in the absence of the enzyme was used as an index of rotamase activity. The rotamase inhibiting activity of a test compound was expressed in relative values (%) with respect to the control value of rotamase activity in the absence of the compound, and the concentration of the compound at which it was capable of inhibiting rotamase activity by 50% was calculated as an IC50 value from its concentration response curve.
Turning to `COc1cc(OCc2nnc([C@@H]3CCCN3C(=O)C(F)(F)C3(O)CC(C)(C)CC(C)(C)C3)o2)cc(OC)c1OC` [Compound 20], the IC50 was found to be 0.276 µM.
The figure for `CC1(C)CC(C)(C)CC(O)(C(F)(F)C(=O)N2CCC[C@H]2c2cc(COc3ccncc3)on2)C1` [Compound 57, (S)-2,2-Difluoro-2-(1-hydroxy-3,3,5,5-tetramethylcyclohexyl)-1-(2-(5-((pyridin-4-yloxy)methyl)isoxazol-3-yl)pyrrolidin-1-yl)ethanone] is 0.079 µM; for `COc1ccc(Cc2nnc([C@@H]3CCCN3C(=O)C(F)(F)C3(O)CC(C)(C)CC(C)(C)C3)o2)cc1OC` [Compound 16] it is 0.142 µM.
For `COc1ccc(OCc2nnc([C@@H]3CCCN3C(=O)C(F)(F)C3(O)CC(C)(C)CC(C)(C)C3)o2)cn1` [Compound 31] the value was 0.389 µM; for `Cc1ccc(OCc2cc([C@@H]3CCCN3C(=O)C(F)(F)C3(O)CC(C)(C)CC(C)(C)C3)no2)cc1` [Compound 65], 0.241 µM; for `CC1(C)CC(C)(C)CC(O)(C(F)(F)C(=O)N2CCC[C@H]2c2nnc(CN)o2)C1` [Compound 37], 1 to 2 µM.
`COc1ccc(OCc2nnc([C@@H]3CCCN3C(=O)C(F)(F)C3(O)CC(C)(C)CC(C)(C)C3)s2)cc1OC` [Compound 4, (S)-1-(2-(5-((3,4-Dimethoxyphenoxy)methyl)-1,3,4-thiadiazol-2-yl)pyrrolidin-1-yl)-2,2-difluoro-2-(1-hydroxy-3,3,5,5-tetramethylcyclohexyl)ethanone]: the IC50 was found to be 0.145 µM.
For `CC1(C)CC(C)(C)CC(O)(C(F)(F)C(=O)N2CCC[C@H]2c2cc(CCc3cccnc3)on2)C1` [Compound 35] the value was 0.045 µM; for `CC1(C)CC(C)(C)CC(O)(C(F)(F)C(=O)N2CCC[C@H]2c2nnc(COc3cccnc3)o2)C1` [Compound 17], 0.356 µM; for `CC1(C)CC(C)(C)CC(O)(C(F)(F)C(=O)N2CCC[C@H]2c2cc(C(C)(C)O)on2)C1` [Compound 49], 0.5 to 1 µM.
The figure for `COc1ccc(CCc2nnc([C@@H]3CCCN3C(=O)C(F)(F)C3(O)CC(C)(C)CC(C)(C)C3)o2)cc1OC` [Compound 12] is 0.27 µM; for `CC1(C)CC(C)(C)CC(O)(C(F)(F)C(=O)N2CCC[C@H]2c2cc(CN3CCOCC3)on2)C1` [Compound 47] it is 0.254 µM; for `CC1(C)CC(C)(C)CC(O)(C(F)(F)C(=O)N2CCC[C@H]2c2cc(CNC(=O)c3ccccc3)on2)C1` [Compound 44, (S)—N-((3-(1-(2,2-Difluoro-2-(1-hydroxy-3,3,5,5-tetramethylcyclohexyl)acetyl)pyrrolidin-2-yl)isoxazol-5-yl)methyl)benzamide] it is 0.166 µM.
For `COc1ccc(OCc2nc([C@@H]3CCCN3C(=O)C(F)(F)C3(O)CC(C)(C)CC(C)(C)C3)nn2C)cc1OC` [Compound 8, (S)-1-(2-(5-((3,4-Dimethoxyphenoxy)methyl)-1-methyl-1H-1,2,4-triazol-3-yl)pyrrolidin-1-yl)-2,2-difluoro-2-(1-hydroxy-3,3,5,5-tetramethylcyclohexyl)ethanone] the value was 0.189 µM; for `COc1ccc(CC(=O)NCc2cc([C@@H]3CCCN3C(=O)C(F)(F)C3(O)CC(C)(C)CC(C)(C)C3)no2)cc1OC` [Compound 51], 0.074 µM; for `COc1ccc(OCc2cc([C@@H]3CCCN3C(=O)C(F)(F)C3(O)CC(C)(C)CC(C)(C)C3)no2)cn1` [Compound 41, (S)-2,2-Difluoro-2-(1-hydroxy-3,3,5,5-tetramethylcyclohexyl)-1-(2-(5-(((6-methoxypyridin-3-yl)oxy)methyl)isoxazol-3-yl)pyrrolidin-1-yl)ethanone], 0.15 µM.
With `COc1ccc(OCc2cc([C@@H]3CCCN3S(=O)(=O)CC3CCCCC3)no2)cc1OC` [Compound 43, (S)-3-(1-((Cyclohexylmethyl)sulfonyl)pyrrolidin-2-yl)-5-((3,4-dimethoxyphenoxy)methyl)isoxazole], the IC50 came out at 0.149 µM.
For `COc1ccc(OCc2cc([C@@H]3CCCN3C(=O)C(F)(F)C3(O)CC(C)(C)CC(C)(C)C3)nn2C)cc1OC` [Compound 9, (S)-1-(2-(5-((3,4-Dimethoxyphenoxy)methyl)-1-methyl-1H-pyrazol-3-yl)pyrrolidin-1-yl)-2,2-difluoro-2-(1-hydroxy-3,3,5,5-tetramethylcyclohexyl)ethanone] the value was 0.5 to 1 µM.
The figure for `CC1(C)CC(C)(C)CC(O)(C(F)(F)C(=O)N2CCC[C@H]2c2nnc(COc3ccccc3)o2)C1` [Compound 29, (S)-2,2-Difluoro-2-(1-hydroxy-3,3,5,5-tetramethylcyclohexyl)-1-(2-(5-(phenoxymethyl)-1,3,4-oxadiazol-2-yl)pyrrolidin-1-yl)ethanone] is 0.062 µM; for `CC1(C)CC(C)(C)CC(O)(C(F)(F)C(=O)N2CCC[C@H]2c2cc(CNC(=O)Cc3ccccc3)on2)C1` [Compound 48] it is 0.094 µM.
The figure for `CC1(C)CC(C)(C)CC(O)(C(F)(F)C(=O)N2CCC[C@H]2c2cc(COc3ccnnc3)on2)C1` [Compound 53, (S)-2,2-Difluoro-2-(1-hydroxy-3,3,5,5-tetramethylcyclohexyl)-1-(2-(5-((pyridazin-4-yloxy)methyl)isoxazol-3-yl)pyrrolidin-1-yl)ethanone] is 0.086 µM; for `CC1(C)CC(C)(C)CC(O)(C(F)(F)C(=O)N2CCC[C@H]2c2cc(COc3cccnn3)on2)C1` [Compound 56, (S)-2,2-Difluoro-2-(1-hydroxy-3,3,5,5-tetramethylcyclohexyl)-1-(2-(5-((pyridazin-3-yloxy)methyl)isoxazol-3-yl)pyrrolidin-1-yl)ethanone] it is 0.328 µM.
In the case of `CC1(C)CC(C)(C)CC(O)(C(F)(F)C(=O)N2CCC[C@H]2c2nnc(COc3cncnc3)o2)C1` [Compound 36], the IC50 lay within 1 to 2 µM.
For `CC1(C)CC(C)(C)CC(O)(C(F)(F)C(=O)N2CCC[C@H]2c2nnc(COc3ccc4c(c3)OCO4)o2)C1` [Compound 32] the value was 0.165 µM; for `COc1cc(OCc2cc([C@@H]3CCCN3C(=O)C(F)(F)C3(O)CC(C)(C)CC(C)(C)C3)no2)cc(OC)c1OC` [Compound 21, (S)-2,2-Difluoro-2-(1-hydroxy-3,3,5,5-tetramethylcyclohexyl)-1-(2-(5-((3,4,5-trimethoxyphenoxy)methyl)isoxazol-3-yl)pyrrolidin-1-yl)ethanone], 0.064 µM.
Turning to `COc1ccc(Oc2nnc([C@@H]3CCCN3C(=O)C(F)(F)C3(O)CC(C)(C)CC(C)(C)C3)o2)cc1OC` [Compound 28], the IC50 is 0.351 µM.
For `CC1(C)CC(C)(C)CC(O)(C(F)(F)C(=O)N2CCC[C@H]2c2cc(COc3cnccn3)on2)C1` [Compound 55, (S)-2,2-Difluoro-2-(1-hydroxy-3,3,5,5-tetramethylcyclohexyl)-1-(2-(5-((pyrazin-2-yloxy)methyl)isoxazol-3-yl)pyrrolidin-1-yl)ethanone] the value was 0.228 µM; for `COc1ccc(OCc2nnc([C@@H]3CCCN3C(=O)C(F)(F)C3(O)CC(C)(C)CC(C)(C)C3)o2)cc1` [Compound 24], 0.218 µM.
For `CC1(C)CC(C)(C)CC(O)(C(F)(F)C(=O)N2CCC[C@H]2c2cc(CNS(=O)(=O)c3ccccc3)on2)C1` [Compound 45, (S)—N-((3-(1-(2,2-Difluoro-2-(1-hydroxy-3,3,5,5-tetramethylcyclohexyl)acetyl)pyrrolidin-2-yl)isoxazol-5-yl)methyl)benzenesulfonamide] the value was 0.101 µM.
The figure for `COc1ccc(OCc2cnc([C@@H]3CCCN3C(=O)C(F)(F)C3(O)CC(C)(C)CC(C)(C)C3)o2)cc1OC` [Compound 6, (S)-1-(2-(5-((3,4-Dimethoxyphenoxy)methyl)oxazol-2-yl)pyrrolidin-1-yl)-2,2-difluoro-2-(1-hydroxy-3,3,5,5-tetramethylcyclohexyl)ethanone] is 0.5 to 1 µM; for `CC1(C)CC(C)(C)CC(O)(C(F)(F)C(=O)N2CCC[C@H]2c2cc(Cn3cnccc3=O)on2)C1` [Compound 62, (S)-3-((3-(1-(2,2-Difluoro-2-(1-hydroxy-3,3,5,5-tetramethylcyclohexyl)acetyl)pyrrolidin-2-yl)isoxazol-5-yl)methyl)pyrimidin-4(3H)-one] it is 0.21 µM; for `COc1ccc(OCc2cnc([C@@H]3CCCN3C(=O)C(F)(F)C3(O)CC(C)(C)CC(C)(C)C3)s2)cc1OC` [Compound 7, (S)-1-(2-(5-((3,4-Dimethoxyphenoxy)methyl)thiazol-2-yl)pyrrolidin-1-yl)-2,2-difluoro-2-(1-hydroxy-3,3,5,5-tetramethylcyclohexyl)ethanone] it is 0.5 to 1 µM.
For the compound `CN(C)Cc1cc([C@@H]2CCCN2C(=O)C(F)(F)C2(O)CC(C)(C)CC(C)(C)C2)no1` [Compound 46, (S)-1-(2-(5-((Dimethylamino)methyl)isoxazol-3-yl)pyrrolidin-1-yl)-2,2-difluoro-2-(1-hydroxy-3,3,5,5-tetramethylcyclohexyl)ethanone], the IC50 was 0.31 µM.
The figure for `COc1ccc(-c2nnc([C@@H]3CCCN3C(=O)C(F)(F)C3(O)CC(C)(C)CC(C)(C)C3)o2)cc1OC` [Compound 13] is 0.434 µM.
For `CC1(C)CC(C)(C)CC(O)(C(F)(F)C(=O)N2CCC[C@H]2c2nnc(COc3ccc4cc[nH]c4c3)o2)C1` [Compound 33] the value was 0.259 µM.

Broadly, the IC50 is the concentration that inhibits the measured activity by half.
